Results: US20210395694A1, “METHOD FOR PROMOTING PRODUCTION OF EXOSOMES AND/OR EXTRACELLULAR VESICLES” (ExoCoBio Inc., priority 2019, published 2021)

Tests used:
[1] = test system: Human adipose-derived stem cells; assay: Exosome CD63 content by flow cytometry (PE MFI against a human CD63 standard curve); format: cell-based; conditions: CD63 content per mL; compared to the untreated control group; FIG. 3
Method: Human adipose-derived stem cells were suspended in a-MEM culture medium containing 10% fetal bovine serum (FBS), 100 units/mL penicillin and 100 μg/mL streptomycin, and then seeded into a 6-well plate at a density of 6,000 cells/cm^2 and cultured in an incubator at 37° C. under 5% CO2. For ascorbic acid-treated groups, 24 hours after seeding, ascorbic acid was added to the culture medium at a concentration of 10 μg/mL, 30 μg/mL and 100 μg/mL, respectively.
In all of the ascorbic acid-treated groups and the untreated group, when the adipose-derived stem cells reached a confluency of 80% or more, the culture medium was replaced with α-MEM medium containing 100 units/mL penicillin and 100 μg/mL streptomycin (hereinafter referred to as “serum-free medium” or “SFM”), or α-MEM medium containing 2% FBS from which FBS-derived exosomes and extracellular vesicles have been removed, 100 units/mL penicillin and 100 μg/mL streptomycin (hereinafter referred to as “extracellular vesicles-depleted medium” or “EDM”). In the ascorbic acid-treated groups, ascorbic acid was added to each of the serum-free medium and the extracellular vesicles-depleted medium at a concentration of 10 μg/mL, 30 μg/mL and 100 μg/mL, respectively. […] After completion of recovery of the conditioned medium, the cells were counted using a cell counter. […]

[2] = test system: Human adipose-derived stem cells; assay: Nanoparticle tracking analysis (NTA) of exosomes isolated from conditioned medium of stem cells cultured with ascorbic acid; format: cell-based
Method: Human adipose-derived stem cells were suspended in a-MEM culture medium containing 10% fetal bovine serum (FBS), 100 units/mL penicillin and 100 μg/mL streptomycin, and then seeded into a 6-well plate at a density of 6,000 cells/cm^2 and cultured in an incubator at 37° C. under 5% CO2. For ascorbic acid-treated groups, 24 hours after seeding, ascorbic acid was added to the culture medium at a concentration of 10 μg/mL, 30 μg/mL and 100 μg/mL, respectively. In all of the ascorbic acid-treated groups and the untreated group, when the adipose-derived stem cells reached a confluency of 80% or more, the culture medium was replaced with α-MEM medium containing 100 units/mL penicillin and 100 μg/mL streptomycin (hereinafter referred to as “serum-free medium” or “SFM”), or α-MEM medium containing 2% FBS from which FBS-derived exosomes and extracellular vesicles have been removed, 100 units/mL penicillin and 100 μg/mL streptomycin (hereinafter referred to as “extracellular vesicles-depleted medium” or “EDM”). […] After completion of recovery of the conditioned medium, the cells were counted using a cell counter. […] The particle size and concentration of the isolated exosomes were measured by nanoparticle tracking analysis (NTA) instrument (purchased from Malvern).

O=C1O[C@H]([C@@H](O)CO)C(O)=C1O [ascorbic acid]
content of the exosomes (i.e., the content of CD63) [1]: remarkably increased | productivity (i.e., the number of exosome particles per mL) ([2]; compared with the control group not treated with ascorbic acid, FIG. 2): increased by approximately four times or more | particle size distribution of the exosomes ([2]; stem cells pre-treated and cultured in medium containing ascorbic acid vs medium not containing ascorbic acid, FIG. 1 (0, 30, 100 μg/mL)): more uniform particle size distribution
